Assay results published in US4093796A, “Antibiotic derivatives of polyene macrolide group and method of obtaining the same” (Politechnika Gdanska, priority 1971, dated 1978).
≈ marks a conversion by molar mass, not a printed value.

Columns and labels:
[1] = test system: tested microorganisms; assay: antimicrobial activity in liquid nutrient medium (serial dilution, turbidity); assay type: cell-based
Method: (b) determination of the antimicrobial activity of antibiotics and their derivatives in liquid nutrient medium-- table 2.
The antimicrobial activity of antibiotics and their derivatives in liquid nutrient medium has been determined by making serial dilutions of antibiotics in the manner described above and by mixing of 0.5 ml of antibiotic solution with 4.5 ml of medium inoculated with tested microorganisms and prepared after Sabouraud without agar and with the addition of tarchocilin in the amount of 25 mg per 1 l. Solutions were allowed to stand for 48 hours at the temperature of 32° C.
Minimum concentration that inhibits the microorganisms growth has been determined on the basis of turbidity determined by extinction growth at […]; results are compared in table 2.

[2] = test system: Saccahromyces cerevisiae; assay: antimicrobial activity in solid nutrient medium (serial dilution), Saccharomyces cerevisiae; assay type: cell-based; conditions: solid Sabouraud medium, 36° C, 24 hours
Method: (§1) (a) determination of the antimicrobial activity of antibiotics and their derivatives in solid nutrient medium-- table 1
(§2) The antimicrobial activity in solid nutrient medium has been estimated with the aid of the serial dilution method as follows: 1 mg of antibiotic was dissolved in 1 ml of dimethylsulphoxide and diluted with 9 ml of sterile water. Serial dilutions in water had been performed and the minimum concentration inhibiting the growth of standard strains of Candida albicans and Saccahromyces cerevisiae estimated: 0.5 ml of the antibiotic solution was mixed in a Petri dish 10 cm in diameter with 9.5 ml of Sabouraud medium having a temperature of about 60° C. After mixing, solidifying the nutrient agar and inoculating the test microorganism on the surface, they were incubated at 36° C for 24 hours. The minimum inhibitory concentration was stated on the basis of observed absence of microorganism growth.

[3] = test system: Candida albicans; assay: antimicrobial activity in solid nutrient medium (serial dilution), Candida albicans; assay type: cell-based; conditions: solid Sabouraud medium, 36° C, 24 hours
Method: as §1, §2

[4] = test system: Candida sp.; assay: inhibition of pathogenic strains isolated from contaminated human members, Candida sp.; assay type: cell-based; conditions: 8 strains studied
Method: (§3) Studies were also conducted on the activity of the glucose derivative of nystatin, as compared with nystatin, in relation to a series of pathogenic strains of Candida and Geotrichum isolated from contaminated human members.

[5] = test system: Candida albicans; assay: inhibition of pathogenic strains isolated from contaminated human members, Candida albicans; assay type: cell-based; conditions: 12 strains studied
Method: as §3

[6] = test system: Geotrichum sp.; assay: inhibition of pathogenic strains isolated from contaminated human members, Geotrichum sp.; assay type: cell-based; conditions: 12 strains studied
Method: as §3

[7] = liquid medium after Sabouraud without agar, 48 hours, 32° C, extinction at 660 mm

CC1C=CC=CCCC=CC=CC=CC=CC(OC2OC(C)C(O)C(N)C2O)CC2OC(O)(CC(O)C(O)CCC(O)CC(O)CC(O)CC(=O)OC(C)C(C)C1O)CC(O)C2C(=O)O (stereo not shown) [nystatin A1]
MIC ([1]; 48 h): 0.5 µg/mL (≈ 0.54 µM)

C[C@@H]1[C@H](O)[C@@H](C)/C=C/C=C/CC/C=C/C=C/C=C/C=C/[C@H](O[C@@H]2O[C@H](C)[C@@H](O)[C@H](NC3O[C@H](CO)[C@@H](O)[C@H](O)[C@H]3O)[C@@H]2O)C[C@@H]2O[C@](O)(C[C@@H](O)[C@H](O)CC[C@@H](O)C[C@@H](O)C[C@@H](O)CC(=O)O[C@H]1C)C[C@H](O)[C@H]2C(=O)[O-].[Na+] (stereo partly shown)
solubility / dispersion in water: form true solutions free of colloids

C[C@@H]1[C@H](O)[C@@H](C)/C=C/C=C/C=C/C=C/C=C/C=C/C=C/[C@H](O[C@@H]2O[C@H](C)[C@@H](O)[C@H](N)[C@@H]2O)C[C@@H]2O[C@](O)(C[C@@H](O)[C@H](O)CC[C@@H](O)CC(=O)C[C@@H](O)CC(=O)O[C@H]1C)C[C@H](O)[C@H]2C(=O)O [mycoheptin]
MIC [1, 7]: 2.5 µg/mL (≈ 2.71 µM)

candicidin
MIC [1, 7]: 0.001 µg/mL

CC1C=CC=CC=CC=CC=CC=CC=CC(OC2OC(C)C(O)C(N)C2O)CC2OC(O)(CC(O)CC(O)C(O)CCC(O)CC(O)CC(=O)OC(C)C(C)C1O)CC(O)C2C(=O)O (stereo not shown) [amphotericin B]
MIC ([1]; 48 h): 0.05 µg/mL (≈ 0.0541 µM)

C[C@@H]1[C@H](O)[C@@H](C)/C=C/C=C/CC/C=C/C=C/C=C/C=C/[C@H](O[C@@H]2O[C@H](C)[C@@H](O)[C@H](NC3O[C@H](CO)[C@@H](O[C@H]4O[C@H](CO)[C@@H](O)[C@H](O)[C@H]4O)[C@H](O)[C@H]3O)[C@@H]2O)C[C@@H]2O[C@](O)(C[C@@H](O)[C@H](O)CC[C@@H](O)C[C@@H](O)C[C@@H](O)CC(=O)O[C@H]1C)C[C@H](O)[C@H]2C(=O)[O-].[Na+] (stereo partly shown)
solubility / dispersion in water: form true solutions free of colloids

trichomycin
MIC [1, 7]: 0.001 µg/mL

C[C@@H]1C/C=C/C=C/C=C/C=C/[C@H](O[C@@H]2O[C@H](C)[C@@H](O)[C@H](N)[C@@H]2O)C[C@@H]2O[C@](O)(C[C@@H](O)C[C@H]3O[C@@H]3/C=C/C(=O)O1)C[C@H](O)[C@H]2C(=O)O [pimaricin]
MIC ([1]; 48 h): 2.5 µg/mL (≈ 3.76 µM)

CCC[C@@H]1C/C=C/C=C/C=C/C=C/[C@H](O[C@@H]2O[C@H](C)[C@@H](O)[C@H](N)[C@@H]2O)C[C@@H]2O[C@](O)(C[C@@H](O)CCCC(=O)C[C@@H](O)[C@H](CC)C(=O)O1)C[C@H](O)[C@H]2C(=O)O [rimocidin]
MIC [1, 7]: 2.5 µg/mL (≈ 3.26 µM)

C[C@@H]1[C@H](O)[C@@H](C)/C=C/C=C/CC/C=C/C=C/C=C/C=C/[C@H](O[C@@H]2O[C@H](C)[C@@H](O)[C@H](NC3O[C@H](CO)[C@@H](O)[C@H](O)[C@H]3O)[C@@H]2O)C[C@@H]2O[C@](O)(C[C@@H](O)[C@H](O)CC[C@@H](O)C[C@@H](O)C[C@@H](O)CC(=O)O[C@H]1C)C[C@H](O)[C@H]2C(=O)O (stereo partly shown) [NGL nystatin A1]
MIC [1, 7]: 1.0 µg/mL (≈ 0.919 µM)

C[C@@H]1[C@H](O)[C@@H](C)/C=C/C=C/CC/C=C/C=C/C=C/C=C/[C@H](O[C@@H]2O[C@H](C)[C@@H](O)[C@H](NC3O[C@H](CO)[C@@H](O)[C@H](O)[C@H]3O)[C@@H]2O)C[C@@H]2O[C@](O)(C[C@@H](O)[C@H](O)CC[C@@H](O)C[C@@H](O)C[C@@H](O)CC(=O)O[C@H]1C)C[C@H](O)[C@H]2C(=O)O (stereo partly shown) [glucose derivative of nystatin]
Minimum inhibitory concentration against cerevisiae [2]: 2 µg/mL (≈ 1.84 µM) | Minimum inhibitory concentration against Candida albicans [3]: 2 µg/mL (≈ 1.84 µM) | Number of strains the growth of which has been inhibited ([4]; Candida sp. after 24 hrs, 3.12 mcg/ml): 2 strains | Number of strains the growth of which has been inhibited ([4]; Candida sp. after 24 hrs, 6.25 mcg/ml): 5 strains | Number of strains the growth of which has been inhibited ([4]; Candida sp. after 24 hrs, 12.5 mcg/ml): 0 strains | Number of strains the growth of which has been inhibited ([4]; Candida sp. after 24 hrs, 25.0 mcg/ml): 1 strains | Number of strains the growth of which has been inhibited ([4]; Candida sp. after 24 hrs, 50.0 mcg/ml): 0 strains | Number of strains the growth of which has been inhibited ([4]; Candida sp. after 48 hrs, 3.12 mcg/ml): 0 strains | Number of strains the growth of which has been inhibited ([4]; Candida sp. after 48 hrs, 6.25 mcg/ml): 2 strains | Number of strains the growth of which has been inhibited ([4]; Candida sp. after 48 hrs, 12.5 mcg/ml): 3 strains | Number of strains the growth of which has been inhibited ([4]; Candida sp. after 48 hrs, 25.0 mcg/ml): 2 strains | Number of strains the growth of which has been inhibited ([4]; Candida sp. after 48 hrs, 50.0 mcg/ml): 1 strains | Number of strains the growth of which has been inhibited ([5]; Candida albicans after 24 hrs, 3.12 mcg/ml): 1 strains | Number of strains the growth of which has been inhibited ([5]; Candida albicans after 24 hrs, 6.25 mcg/ml): 11 strains | Number of strains the growth of which has been inhibited ([5]; Candida albicans after 24 hrs, 12.5 mcg/ml): 0 strains | Number of strains the growth of which has been inhibited ([5]; Candida albicans after 24 hrs, 25.0 mcg/ml): 0 strains | Number of strains the growth of which has been inhibited ([5]; Candida albicans after 24 hrs, 50.0 mcg/ml): 0 strains | Number of strains the growth of which has been inhibited ([5]; Candida albicans after 48 hrs, 3.12 mcg/ml): 0 strains | Number of strains the growth of which has been inhibited ([5]; Candida albicans after 48 hrs, 6.25 mcg/ml): 0 strains | Number of strains the growth of which has been inhibited ([5]; Candida albicans after 48 hrs, 12.5 mcg/ml): 12 strains | Number of strains the growth of which has been inhibited ([5]; Candida albicans after 48 hrs, 25.0 mcg/ml): 0 strains | Number of strains the growth of which has been inhibited ([5]; Candida albicans after 48 hrs, 50.0 mcg/ml): 0 strains | Number of strains the growth of which has been inhibited ([6]; Geotrichum sp. after 24 hrs, 3.12 mcg/ml): 0 strains | Number of strains the growth of which has been inhibited ([6]; Geotrichum sp. after 24 hrs, 6.25 mcg/ml): 5 strains | Number of strains the growth of which has been inhibited ([6]; Geotrichum sp. after 24 hrs, 12.5 mcg/ml): 7 strains | Number of strains the growth of which has been inhibited ([6]; Geotrichum sp. after 24 hrs, 25.0 mcg/ml): 0 strains | Number of strains the growth of which has been inhibited ([6]; Geotrichum sp. after 24 hrs, 50.0 mcg/ml): 0 strains | Number of strains the growth of which has been inhibited ([6]; Geotrichum sp. after 48 hrs, 3.12 mcg/ml): 0 strains | Number of strains the growth of which has been inhibited ([6]; Geotrichum sp. after 48 hrs, 6.25 mcg/ml): 0 strains | Number of strains the growth of which has been inhibited ([6]; Geotrichum sp. after 48 hrs, 12.5 mcg/ml): 9 strains | Number of strains the growth of which has been inhibited ([6]; Geotrichum sp. after 48 hrs, 25.0 mcg/ml): 3 strains | Number of strains the growth of which has been inhibited ([6]; Geotrichum sp. after 48 hrs, 50.0 mcg/ml): 0 strains

COc1cc2c(c3oc(-c4ccccc4)cc(=O)c13)C=CC(C)(C)O2 [candidin]
MIC ([1]; 48 h): 0.2 µg/mL (≈ 0.598 µM)
